Reference: ChEMBL document CHEMBL1133346, “The synthesis and evaluation of 3-substituted-7-(alkylidene)cephalosporin sulfones as beta-lactamase inhibitors” (Bioorg Med Chem Lett, 2000)

Experiments:
[1] = molecular target: T1, Beta-lactamase class C (Enterobacter cloacae, UniProt Q59401); assay: Inhibition of class C beta-lactamase derived from Enterobacter cloacae P99
[2] = molecular target: Beta-lactamase (Staphylococcus aureus, UniProt P00807); assay: Inhibition of class A beta-lactamase derived from Staphylococcus aureus strain PC1
[3] = molecular target: Beta-lactamase TEM (Enterobacter cloacae, UniProt Q6W9J1); assay: Inhibition of class A TEM-1 beta-lactamase derived from Enterobacter cloacae
[4] = molecular target: T1, Beta-lactamase class C; assay: Inhibition of GC1 extended spectrum class C beta-lactamase; set-up: species or system Enterobacter cloacae GC1
[5] = molecular target: T1, Beta-lactamase class C; assay: The compound was evaluated for inhibition against the GC1 extended spectrum Class C beta-lactamase
[6] = molecular target: T1, Beta-lactamase class C; assay: The compound was evaluated for inhibition against Class C beta-lactamase derived from Enterobacter cloacae P99

Chain of Beta-lactamase TEM (Q6W9J1 whole entry): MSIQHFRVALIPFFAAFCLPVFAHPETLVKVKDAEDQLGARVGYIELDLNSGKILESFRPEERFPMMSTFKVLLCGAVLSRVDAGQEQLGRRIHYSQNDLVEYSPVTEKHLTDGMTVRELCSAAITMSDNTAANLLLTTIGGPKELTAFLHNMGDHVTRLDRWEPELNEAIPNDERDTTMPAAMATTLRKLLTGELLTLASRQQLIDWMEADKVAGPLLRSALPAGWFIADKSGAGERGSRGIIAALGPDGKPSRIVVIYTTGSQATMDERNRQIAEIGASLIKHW
Chain of Beta-lactamase (P00807 whole entry): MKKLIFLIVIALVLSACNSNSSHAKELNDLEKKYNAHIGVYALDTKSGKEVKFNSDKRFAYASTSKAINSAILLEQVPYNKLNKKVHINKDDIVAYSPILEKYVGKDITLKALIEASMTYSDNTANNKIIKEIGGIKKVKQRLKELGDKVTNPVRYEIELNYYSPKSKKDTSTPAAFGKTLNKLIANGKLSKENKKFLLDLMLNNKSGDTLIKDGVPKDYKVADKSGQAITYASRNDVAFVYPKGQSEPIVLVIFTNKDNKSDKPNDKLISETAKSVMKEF
T1 sequence (Q59401 whole entry): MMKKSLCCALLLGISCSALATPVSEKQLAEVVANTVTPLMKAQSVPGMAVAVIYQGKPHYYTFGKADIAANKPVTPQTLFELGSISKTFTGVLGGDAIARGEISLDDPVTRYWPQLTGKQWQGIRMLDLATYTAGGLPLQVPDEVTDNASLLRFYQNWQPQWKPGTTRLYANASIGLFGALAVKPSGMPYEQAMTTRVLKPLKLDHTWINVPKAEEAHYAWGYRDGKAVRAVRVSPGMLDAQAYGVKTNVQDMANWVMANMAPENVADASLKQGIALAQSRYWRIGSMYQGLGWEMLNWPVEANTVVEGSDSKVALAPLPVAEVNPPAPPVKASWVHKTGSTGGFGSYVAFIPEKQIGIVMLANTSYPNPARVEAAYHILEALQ

Compound	IC50 [1] [µM]	IC50 [2] [µM]	IC50 [3] [µM]	IC50 [4] [µM]	IC50 [5] [µM]	IC50 [6] [µM]
C=C/C=C/C1=C(C(=O)O)N2C(=O)/C(=C/c3ccccn3)C2S(=O)(=O)C1 (stereo unspecified)	24	75	68	–	–	–
COC(=O)/C(Cl)=C/C1=C(C(=O)O)N2C(=O)/C(=C/c3ccccn3)C2S(=O)(=O)C1 (stereo unspecified)	0.9	1.4	0.07	0.18	–	–
C=CC(=O)OCC1=C(C(=O)O)N2C(=O)/C(=C/c3ccccn3)C2S(=O)(=O)C1 (stereo unspecified)	0.1	110	–	0.9	–	–
O=C(Cc1ccc(O)c(O)c1)OCC1=C(C(=O)O)N2C(=O)/C(=C/c3ccccn3)C2S(=O)(=O)C1 (stereo unspecified)	3.6	67	17.4	–	–	–
C=C1C(/C=C/C(=O)O)=C(C(=O)O)N2C(=O)/C(=C/c3ccccn3)C2S1(=O)=O (stereo unspecified)	6.6	–	2.5	–	–	–
COC(=O)/C=C/C1=C(C(=O)O)N2C(=O)/C(=C/c3ccccn3)C2S(=O)(=O)C1 (stereo unspecified)	0.2	0.3	0.02	0.3	–	–
N#CCC1=C(C(=O)O)N2C(=O)/C(=C/c3ccccn3)C2S(=O)(=O)C1 (stereo unspecified)	0.9	8.9	5.6	–	–	–
CCOC(=O)CNC(=O)OCC1=C(C(=O)O)N2C(=O)/C(=C/c3ccccn3)C2S(=O)(=O)C1 (stereo unspecified)	0.4	33.4	260	45	–	–
O=C(O)/C=C/C1=C(C(=O)O)N2C(=O)/C(=C/c3ccccn3)C2S(=O)(=O)C1 (stereo unspecified)	0.31	31	2.5	–	–	–
CCC(=O)OCC1=C(C(=O)O)N2C(=O)/C(=C/c3ccccn3)C2S(=O)(=O)C1 (stereo unspecified)	–	15.4	311	–	–	–
CC(C)(C)OC(=O)/C=C/C1=C(C(=O)O)N2C(=O)/C(=C/c3ccccn3)C2S(=O)(=O)C1 (stereo unspecified)	1.48	240	–	–	–	–
O=C(O)C1=C(/C=C/[N+](=O)[O-])CS(=O)(=O)C2/C(=C\c3ccccn3)C(=O)N12 (stereo unspecified)	0.02	0.2	0.07	0.1	–	–
NC(=O)/C=C/C1=C(C(=O)O)N2C(=O)/C(=C/c3ccccn3)C2S(=O)(=O)C1 (stereo unspecified)	0.026	0.1	0.09	0.01	–	–
NC(=O)/C=C/C1=C(C(=O)O)N2C(=O)/C(=C/c3cccs3)C2S(=O)(=O)C1 (stereo unspecified)	0.29	154	0.9	–	–	–
COCC1=C(C(=O)O)N2C(=O)/C(=C/c3ccccn3)C2S(=O)(=O)C1 (stereo unspecified)	0.7	28	0.7	1.2	–	–
C=C1C(/C=C/C(=O)OC)=C(C(=O)O)N2C(=O)/C(=C/c3ccccn3)C2S1(=O)=O (stereo unspecified)	0.03	6	2.9	0.06	–	–
NC(=O)OCC1=C(C(=O)O)N2C(=O)/C(=C/c3ccccn3)C2S(=O)(=O)C1 (stereo unspecified)	2.3	7.9	10.5	0.26	–	–
C=C1C(/C=C/C(=O)OC(C)(C)C)=C(C(=O)O)N2C(=O)/C(=C/c3ccccn3)C2S1(=O)=O (stereo unspecified)	440	–	–	150	–	–
O=C(O)C1=C(/C=C/c2ccccn2)CS(=O)(=O)[C@@H]2/C(=C\c3ccccn3)C(=O)N12	0.18	4.3	0.2	–	–	–
N#CC1=C(C(=O)O)N2C(=O)/C(=C/c3ccccn3)C2S(=O)(=O)C1 (stereo unspecified)	0.029	280	2.34	–	–	–
N#C/C=C/C1=C(C(=O)O)N2C(=O)/C(=C/c3ccccn3)C2S(=O)(=O)C1 (stereo unspecified)	–	0.72	0.014	–	0.012	0.01
O=C(COc1ccccc1)OCC1=C(C(=O)O)N2C(=O)/C(=C/c3ccccn3)C2S(=O)(=O)C1 (stereo unspecified)	0.1	100	0.8	0.13	–	–
O=C(O)C1=C(/C=C/c2cccc[n+]2[O-])CS(=O)(=O)[C@@H]2/C(=C\c3ccccn3)C(=O)N12	0.6	8.6	0.006	0.1	–	–
